The values that follow come from BindingDB's records for doi:10.1016/0960-894X(95)00078-8 (1995).

Usually IC50 stands for the concentration that inhibits the measured activity by half.

Peptide text beside a SMILES is read from it.

Assay [1] can be described thus: In vitro ability to displace [125 I]CGRP from Calcitonin gene-related peptide type receptor at 4 degrees Celsius in rabbit porcine c+i.
Assay [2] can be described thus: In vitro ability to displace [125 I]CGRP from Calcitonin gene-related peptide type receptor at 4 degrees Centigrade in rabbit lung.

For the compound `CC(C)C[C@H](NC(=O)COCCOCCNC(=O)[C@@H](NC(=O)[C@H](CS)NC(=O)[C@@H](NC(=O)[C@H](C)NC(=O)[C@@H](NC(=O)[C@H](CC(=O)O)NC(=O)[C@H](CS)NC(=O)[C@H](C)N)[C@@H](C)O)[C@@H](C)O)C(C)C)C(=O)N[C@@H](CO)C(=O)N[C@@H](CCCNC(=N)N)C(=O)N[C@@H](CO)C(=O)NCC(=O)NCC(=O)N[C@H](C(=O)N[C@H](C(=O)N[C@@H](CCCCN)C(=O)N[C@@H](CC(N)=O)C(=O)N[C@@H](CC(N)=O)C(=O)N[C@@H](Cc1ccccc1)C(=O)N[C@H](C(=O)N1CCC[C@H]1C(=O)N[C@H](C(=O)N[C@@H](CC(N)=O)C(=O)N[C@H](C(=O)NCC(=O)N[C@@H](CO)C(=O)N[C@@H](CCCCN)C(=O)N[C@@H](C)C(=O)N[C@@H](Cc1ccccc1)C(=O)O)C(C)C)[C@@H](C)O)C(C)C)C(C)C)C(C)C`, the IC50 is 995 nM in assay [1] and 185 nM in assay [2].

In the case of `CC(C)[C@H](NC(=O)CNC(=O)CNC(=O)[C@H](CO)NC(=O)[C@H](CCCN=C(N)N)NC(=O)[C@@H](NC(=O)[C@H](CCCN=C(N)N)NC(=O)[C@@H](NC(=O)[C@H](Cc1c[nH]cn1)NC(=O)[C@@H](NC(=O)[C@H](CS)NC(=O)[C@@H](NC(=O)[C@H](C)NC(=O)[C@@H](NC(=O)[C@H](CC(=O)O)NC(=O)[C@H](CS)NC(=O)[C@H](C)N)[C@@H](C)O)[C@@H](C)O)C(C)C)C(C)C)C(C)C)C(=O)N[C@H](C(=O)N[C@@H](CCCCN)C(=O)N[C@@H](CC(N)=O)C(=O)N[C@@H](CC(N)=O)C(=O)N[C@@H](Cc1ccccc1)C(=O)N[C@H](C(=O)N1CCC[C@H]1C(=O)N[C@H](C(=O)N[C@@H](CC(N)=O)C(=O)N[C@H](C(=O)NCC(=O)N[C@@H](CO)C(=O)N[C@@H](CCCCN)C(=O)N[C@@H](C)C(=O)N[C@@H](Cc1ccccc1)C(N)=O)C(C)C)[C@@H](C)O)C(C)C)C(C)C` (H-ACDTATCVHVRVRSGGVVKNNFVPTNVGSKAF-NH2), the concentration for half-maximal inhibition (IC50) in assay [1] is 14 nM; in assay [2] it was 4 nM.
